Laboratory results reported in the supplement of paper PMC13380429.

Experiments:
Caco-2 [1] = assay: cell viability relative to DMSO; higher = less toxic; conditions: 72 h
Calu-3 [2] = assay: as above; conditions: 72 h
HepG2 [3] = assay: as above; conditions: 72 h
U2OS [4] = assay: as above; conditions: 72 h
Vero E6 [5] = assay: as above; conditions: 72 h
Caco-2 [6] = assay: relative viability EC50 (midpoint between 100% and the lowest measured viability); higher = less toxic; conditions: 72 h
Calu-3 [7] = assay: as above; conditions: 72 h
HepG2 [8] = assay: as above; conditions: 72 h
U2OS [9] = assay: as above; conditions: 72 h
Vero E6 [10] = assay: as above; conditions: 72 h
Caco-2 [11] = assay: drug sensitivity score (DSS) for viability; higher = more toxic; extreme values may be limits of the assay; conditions: 72 h
Calu-3 [12] = assay: as above; conditions: 72 h
HepG2 [13] = assay: as above; conditions: 72 h
U2OS [14] = assay: as above; conditions: 72 h
Vero E6 [15] = assay: as above; conditions: 72 h
[16] = system: A549-ACE2 infected with SARS-CoV-2; assay: cell count relative to DMSO; higher = less toxic; conditions: 24 h
[17] = system: A549-ACE2 infected with SARS-CoV-2; assay: SARS-CoV-2 infection rate relative to DMSO; higher = more infection; conditions: 24 h
A549-ACE2 = assay: drug-induced phospholipidosis relative to tamoxifen; higher = more phospholipidosis
[18] = system: A549-ACE2 infected with SARS-CoV-2; assay: morphology score (similarity to uninfected cells); higher = more like uninfected cells; conditions: 24 h

CC1=C(C)C(=O)C(C(CCCCCC(=O)O)c2ccccc2)=C(C)C1=O (stereo not given) [seratrodast]
cell viability [%]
Conditions | Caco-2 [1] | Calu-3 [2] | HepG2 [3] | U2OS [4] | Vero E6 [5]
1 nM | 91 | 104 | 98.7 | 99.8 | 97.7
10 nM | 92.7 | 91 | 98.7 | 95.7 | 99.5
100 nM | 104 | 99 | 101 | 99.6 | 96.4
1000 nM | 90.4 | 99.2 | 98.1 | 93.2 | 96.9
10000 nM | 95.3 | 104 | 103 | 98.5 | 98.2

Conditions | drug sensitivity score | relative viability EC50 [µM]
Caco-2 [6] | – | > 10
Caco-2 [11] | 0 | –
Calu-3 [7] | – | > 10
Calu-3 [12] | 0 | –
HepG2 [8] | – | > 10
HepG2 [13] | 0 | –
U2OS [9] | – | > 10
U2OS [14] | 0 | –
Vero E6 [10] | – | > 10
Vero E6 [15] | 0 | –

N[C@@H]1CN(c2c(F)cc3c(=O)c(C(=O)O)cn([C@@H]4C[C@@H]4F)c3c2Cl)CC12CC2 [sitafloxacin]
cell viability [%]
Conditions | Caco-2 [1] | Calu-3 [2] | HepG2 [3] | U2OS [4] | Vero E6 [5]
1 nM | 95.2 | 98.5 | 107 | 104 | 91.3
10 nM | 95.6 | 94 | 101 | 96.3 | 98
100 nM | 91.6 | 98 | 97.5 | 96 | 91.6
1000 nM | 106 | 96.7 | 110 | 95.8 | 99
10000 nM | 97.2 | 93.9 | 108 | 96.8 | 106

Conditions | drug sensitivity score | relative viability EC50 [µM]
Caco-2 [6] | – | > 10
Caco-2 [11] | 0 | –
Calu-3 [7] | – | > 10
Calu-3 [12] | 0 | –
HepG2 [8] | – | > 10
HepG2 [13] | 0 | –
U2OS [9] | – | > 10
U2OS [14] | 0 | –
Vero E6 [10] | – | > 10
Vero E6 [15] | 0 | –

O=C(CCCN1CCC2(CC1)C(=O)NCN2c1ccccc1)c1ccc(F)cc1 [spiperone]
Conditions | SARS-CoV-2 infection rate, [17] [%] | cell count, [16] [%] | cell viability, Caco-2 [1] [%] | cell viability, Calu-3 [2] [%] | cell viability, HepG2 [3] [%] | cell viability, U2OS [4] [%] | cell viability, Vero E6 [5] [%] | morphology score, [18]
1 nM | – | – | 99.3 | 105 | 91.6 | 100 | 99.8 | –
10 nM | – | – | 92.7 | 84.1 | 108 | 96.6 | 103 | –
100 nM | – | – | 96.2 | 108 | 98.7 | 101 | 96.1 | –
0.3 µM | 102 | 99 | – | – | – | – | – | -0.22
1000 nM | – | – | 99.3 | 103 | 91.1 | 98.5 | 95.8 | –
3 µM | 86 | 114 | – | – | – | – | – | 0.32
10 µM | 31 | 97 | – | – | – | – | – | 0.19
10000 nM | – | – | 71.9 | 74.1 | 62.5 | 94.6 | 98.3 | –
30 µM | 35 | 77 | – | – | – | – | – | 0.03

drug-induced phospholipidosis [%], A549-ACE2
Conditions | 0.3 µM | 0.833333 µM | 3.33333 µM | 6.66667 µM | 10 µM | 30 µM
24 h | -1.11 | -1.19 | 0.56 | 7.38 | 19.1 | 21
48 h | 1.78 | -0.92 | 2.83 | 6.18 | 13.4 | –
72 h | 1.57 | -0.0916 | 2.59 | 6.4 | 14.9 | –

Conditions | drug sensitivity score | relative viability EC50 [µM]
Caco-2 [11] | 1.3 | –
Calu-3 [12] | 0.8 | –
HepG2 [13] | 3.2 | –
U2OS [9] | – | > 10
U2OS [14] | 0 | –
Vero E6 [10] | – | > 10
Vero E6 [15] | 0 | –

C[C@@H]1CN(Cc2ccc(F)cc2)[C@@H](C)CN1C(=O)c1cc2c(C(=O)C(=O)N(C)C)cn(C)c2cc1Cl [talmapimod]
cell viability [%]
Conditions | Caco-2 [1] | Calu-3 [2] | HepG2 [3] | U2OS [4] | Vero E6 [5]
1 nM | 103 | 106 | 112 | 106 | 96.1
10 nM | 99.2 | 101 | 108 | 101 | 103
100 nM | 90.4 | 99.8 | 100 | 103 | 93.5
1000 nM | 86.4 | 92.9 | 104 | 96.9 | 84.6
10000 nM | 91.8 | 100 | 104 | 90.6 | 85

Conditions | drug sensitivity score | relative viability EC50 [µM]
Caco-2 [6] | – | > 10
Caco-2 [11] | 1.5 | –
Calu-3 [7] | – | > 10
Calu-3 [12] | 0 | –
HepG2 [8] | – | > 10
HepG2 [13] | 0 | –
U2OS [9] | – | > 10
U2OS [14] | 0 | –
Vero E6 [10] | – | > 10
Vero E6 [15] | 2.1 | –

Cc1ccc2c(c1CCC(=O)O)CC[C@@H](NS(=O)(=O)c1ccc(Cl)cc1)C2 [terutroban]
cell viability [%]
Conditions | Caco-2 [1] | Calu-3 [2] | HepG2 [3] | U2OS [4] | Vero E6 [5]
1 nM | 93 | 93.2 | 102 | 97.1 | 96.8
10 nM | 97.4 | 85.6 | 90.7 | 96.7 | 97.6
100 nM | 100 | 92.8 | 95.1 | 94.4 | 95.6
1000 nM | 102 | 105 | 103 | 99.5 | 94.6
10000 nM | 92.2 | 97.7 | 96.3 | 93.2 | 95.8

Conditions | drug sensitivity score | relative viability EC50 [µM]
Caco-2 [6] | – | > 10
Caco-2 [11] | 0 | –
Calu-3 [7] | – | > 10
Calu-3 [12] | 0 | –
HepG2 [8] | – | > 10
HepG2 [13] | 0 | –
U2OS [9] | – | > 10
U2OS [14] | 0 | –
Vero E6 [10] | – | > 10
Vero E6 [15] | 0 | –

CN(C)[C@@H]1C(O)=C(C(N)=O)C(=O)[C@@]2(O)C(O)=C3C(=O)c4c(O)cccc4[C@@](C)(O)[C@H]3C[C@@H]12 [tetracycline]
cell viability [%]
Conditions | Caco-2 [1] | Calu-3 [2] | HepG2 [3] | U2OS [4] | Vero E6 [5]
1 nM | 101 | 99.6 | 107 | 104 | 100
10 nM | 88.2 | 106 | 96.4 | 98.5 | 102
100 nM | 98.8 | 100 | 107 | 102 | 100
1000 nM | 97.1 | 107 | 108 | 95 | 101
10000 nM | 93.8 | 108 | 95.4 | 97.2 | 95.5

Conditions | drug sensitivity score | relative viability EC50 [µM]
Caco-2 [6] | – | > 10
Caco-2 [11] | 0 | –
Calu-3 [7] | – | > 10
Calu-3 [12] | 0 | –
HepG2 [8] | – | > 10
HepG2 [13] | 0 | –
U2OS [9] | – | > 10
U2OS [14] | 0 | –
Vero E6 [10] | – | > 10
Vero E6 [15] | 0 | –
